Assay results taken from PMC10302187, “WssI from the Gram-negative bacterial cellulose synthase is an O-acetyltransferase that acts on cello-oligomers with several acetyl donor substrates” (The Journal of Biological Chemistry, 2023).

Legend:
[1] = target: T1, AiWssI^ΔN (Achromobacter insuavis, UniProt A0A6J5I893); experiment: HTS MU-Ac fluorescence esterase dose-response assay; assay type: biochemical; conditions: MU-Ac as esterase substrate
Description: Large-scale HTS was conducted at the SPARC BioCentre Drug Discovery (Hospital for Sick Children, Toronto, Canada) with a subset of the Chembridge DIVERset library collection (as well as 135 manually selected compounds based on success against other SGNH enzymes) in a 384-well format. The assay was performed in singlet during the primary screen of the entire compound list and in triplicate for a follow-up confirmatory screen. Reaction setups for both screens were conducted with 50 mM sodium phosphate buffer (pH 6.5), 3 μM AiWssI^ΔN and 0.5 mM MU-Ac (final concentration of 5% [v/v] dimethyl sulfoxide) using a Thermo MultiDrop Combi Reagent Dispenser. The reaction was initiated by the addition of 20 μM of the test compounds using an Echo 550 acoustic dispenser (Labcyte). Fluorescence was monitored with a SynergyNeo microplate reader (BioTek) using excitation and emission wavelengths of 365 and 450 nm, respectively, for approximately 45 min alongside appropriate negative and positive controls. […] The hits remaining after the primary and confirmatory screening were examined further to identify possible PAINS, which could result in false-positive results ([91]). Further refinement of the lead candidates was also conducted by assessing the fluorescence quenching potential of lead compound hits by assaying the quenching potential of different compound concentrations (10.1 μM and/or 50.5 μM) against the fluorescence of 4-methylumbeliferone (247 μM) to reveal any potential false positives that were not actually because of AiWssI^ΔN activity. All fluorescence readings were normalized using the following equation to determine the percentage of quenching ([92]): NormalizedFlouresence=Fobs−μFmin/μFmax−μFminx100% In the aforementioned formula, Fobs is the sample fluorescence value, μFmin is the mean fluorescence value of the negative controls, and μFmax is the mean fluorescence value of the positive controls.
(§1) All inhibitor compounds for confirmatory assays were purchased from Enamine Ltd, with the exception of compound 1 (Santa Cruz Biotechnology, Inc), Compounds 2 and 7 (Molport via Maybridge Ltd and Vitas M Chemical Ltd, respectively) and compound 6 (Mcule, Inc). The dose–response curves were generated using either CDD Vault Analysis Software (Collaborative Drug Discovery, Inc) or GraphPad Prism, version 8.4.3. Inhibition constants (Ki) were calculated using the Cheng–Prusoff equation for competitive inhibition that is calculated using the KM of the uninhibited enzyme, the substrate concentration (S) at which the IC50 values were calculated, and the IC50 value of the inhibitor ([92]): Ki=IC50/(S/KM+1)

[2] = system: CC(=O)Oc1ccc([N+](=O)[O-])cc1; experiment: O-acetylesterase Michaelis-Menten kinetics; assay type: biochemical, Achromobacter insuavis; conditions: other: AiWssI^ΔN, acetyl donor substrate, pH 7
Description: (§2) The enzymatic rate of the WssI^ΔN proteins was measured using chromogenic assays in a 50 mM sodium phosphate-buffered (pH 7) solution, with WssI^ΔN (3 μM unless specified otherwise) and were initiated by the addition of pNP-Ac to a final concentration of 6 mM (dissolved in 5% [v/v] ethanol). Assay samples and corresponding controls (i.e., containing no WssI^ΔN and/or substrate) were run in quadruplicate, and the progress of the reaction was monitored at 405 nm (Cytation5) for 30 min in 1 min intervals following a 5 s initial linear shake to mix contents thoroughly. These conditions were deemed standard assay conditions for subsequent trials except where modifications are noted. The activity assay to determine optimal pH and buffer type was performed with 2-(N-morpholino)ethanesulfonic acid over pH ranges of 5.5 to 6.5, sodium phosphate for pH 6.5 to 7.5, and Tris for the final range of 7.5 to 9.25. In addition, standard assay conditions were modified by incorporating various inhibitors and common reducing agents to determine effects on WssI^ΔN activity. […] To test the effects of the absence of DTT, trials were conducted where DTT was removed from all purification and dialysis buffers, unless mentioned otherwise. Data are either reported in specific activity as units of esterase activity (i.e., the amount of enzyme required to release 1 μmol of p-nitrophenol per min^−1 per mg of protein^−1) or as percent residual activity when compared with the WssI^ΔN controls (i.e., containing no inhibitors).
(§3) The fluorescence substrate, MU-Ac, was also tested as a substrate of WssI^ΔN for its amenability to the planned high-throughput analyses (see later). Reaction setups were exactly the same as that for pNP-Ac, with the exceptions of the assay buffer (50 mM sodium phosphate, 150 mM NaCl, 1 mM DTT, pH 7), MU-Ac as the acetyl donor (final concentration of 0.5 mM along with 5% [v/v] dimethyl sulfoxide, as this was the solvent for MU-Ac), and the assay was performed in fluorescence compatible microplates (Grenier BioOne) and monitored with excitation and emission wavelengths of 365 and 450 nm, respectively for 60 min.
(§4) Kinetic assays were performed using the same standard assay conditions for esterase reactions outlined previously, but with acetyl donor pNP-Ac concentrations ranging from 0 to 10 mM and MU-Ac concentrations between 0 and 8 mM. Michaelis–Menten parameters, such as KM and kcat, were calculated from the kinetic curves according to a nonlinear regression analysis of plots of initial velocity as a function of pNP-Ac or MU-Ac concentration using GraphPad Prism, version 8.4.3 (GraphPad Sofware, Inc).

[3] = system: CC(=O)Oc1ccc2c(C)cc(=O)oc2c1; experiment: O-acetylesterase Michaelis-Menten kinetics; assay type: biochemical, Achromobacter insuavis; conditions: other: AiWssI^ΔN, acetyl donor substrate, pH 7
Description: as §2, §3, §4

[4] = target: T1, AiWssI^ΔN; experiment: Follow-up standard MU-Ac esterase assay (dose-response); assay type: biochemical; conditions: for IC50: MU-Ac (0.5 mM) as esterase substrate, read-out: Second MU-Ac IC50; for Ki: MU-Ac as esterase substrate, Cheng-Prusoff, competitive inhibition, read-out: Second MU-Ac Ki
Description: as §3, §1

[5] = target: T1, AiWssI^ΔN; assay type: biochemical; conditions: 1 h incubation with reagent (1 mM PMSF, 5 mM MSF, 5 mM EDTA, 0.1 mM E-64, 20 μM Pepstatin A); 6 mM pNP-Ac, pH 7
Description: as §2

[6] = target: T2, PfWssI^ΔN (Pseudomonas fluorescens, UniProt Q8RSY4); assay type: biochemical; conditions: 1 h incubation with reagent (1 mM PMSF, 5 mM MSF, 5 mM EDTA, 0.1 mM E-64, 20 μM Pepstatin A); 6 mM pNP-Ac, pH 7
T2 sequence (Q8RSY4 92-374): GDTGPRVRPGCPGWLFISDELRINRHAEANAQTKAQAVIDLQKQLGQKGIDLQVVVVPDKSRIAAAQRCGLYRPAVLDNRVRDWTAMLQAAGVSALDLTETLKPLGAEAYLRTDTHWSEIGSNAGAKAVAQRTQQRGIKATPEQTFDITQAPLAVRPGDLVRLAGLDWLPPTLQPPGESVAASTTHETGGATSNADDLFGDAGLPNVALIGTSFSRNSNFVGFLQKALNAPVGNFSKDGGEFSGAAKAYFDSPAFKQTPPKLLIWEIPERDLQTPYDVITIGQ
Description: as §2

[7] = target: T1, AiWssI^ΔN; experiment: pNP-Ac cleavage in the presence of oligosaccharide acceptors; assay type: biochemical; conditions: 1 mM oligosaccharide, 6 mM pNP-Ac, 2 μM enzyme; for Specific activity of AiWssI^ΔN with acceptor relative to no acceptor control: t test; for Increase in AiWssI^ΔN activity versus reaction without celloacceptors: 30 min, 23 °C
Description: Acetyltransfer by WssI was performed under the same esterase assay protocol outlined previously, but with the addition of cellulose or chitin oligosaccharides (1 mM) as the acceptor in the presence of either pNP-Ac (6 mM) or acetyl-CoA (4 mM) as the acetyl donor ([…]). Assessment of acetyltransfer was first monitored indirectly (absorbance at 405 nm wavelength) by observing differences in pNP liberation rates in the presence and absence of the polysaccharide acceptors. Later to confirm the acetylated products, reactions performed with pNP-Ac and acceptor polysaccharides were subjected to solid-phase extraction of the carbohydrate reaction products followed by detection with MS (as outlined later). Reactions utilizing acetyl-CoA as the donor were subjected to LC–MS analyses. All model fitting and statistical analyses were performed using GraphPad Prism, version 8.4.3.

[8] = substrate: CC(=O)Oc1ccc([N+](=O)[O-])cc1; experiment: O-acetylesterase Michaelis-Menten kinetics; assay type: biochemical, Pseudomonas fluorescens; conditions: other: PfWssI^ΔN, acetyl donor substrate, pH 7
Description: as §2, §3, §4

[9] = substrate: CC(=O)Oc1ccc2c(C)cc(=O)oc2c1; experiment: O-acetylesterase Michaelis-Menten kinetics; assay type: biochemical, Pseudomonas fluorescens; conditions: other: PfWssI^ΔN, acetyl donor substrate, pH 7
Description: as §2, §3, §4

T1 sequence (A0A6J5I893 entry or part of it, stated change not applied): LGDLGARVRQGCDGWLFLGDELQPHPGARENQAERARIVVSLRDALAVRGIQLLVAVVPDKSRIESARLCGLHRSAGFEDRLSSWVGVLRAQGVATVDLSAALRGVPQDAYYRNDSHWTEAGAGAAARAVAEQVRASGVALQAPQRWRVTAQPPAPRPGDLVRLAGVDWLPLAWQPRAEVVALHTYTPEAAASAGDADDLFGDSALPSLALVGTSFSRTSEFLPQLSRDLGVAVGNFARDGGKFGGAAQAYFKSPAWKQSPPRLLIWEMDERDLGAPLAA

CC(=O)Nc1ccc(S(=O)(=O)Nc2ccc([N+](=O)[O-])cc2)cc1 [Compound 7, N-{4-[(4-Nitrophenyl)sulfamoyl]phenyl}acetamide]
IC50 [1]: 100 µM

AiWssI^ΔN (Achromobacter insuavis)
Km [2]: 3850 ± 1070 µM | kcat [2]: 0.031 ± 0.0035 s⁻¹ | kcat/Km [2]: 8 M⁻¹ s⁻¹ | Km [3]: 570 ± 240 µM | kcat [3]: 0.00258 ± 0.00028 s⁻¹ | kcat/Km [3]: 4.5 M⁻¹ s⁻¹

CCOC(=O)NC(=O)/C(C#N)=C/c1ccc(N(C)C)cc1 [Compound 2, Ethyl N-[(2E)-2-cyano-2-{[4-(dimethylamino)-phenyl]methylidene}acetyl]carbamate]
IC50 [4]: 22.6 µM | Ki [4]: 12 µM | IC50 [1]: 60.2 µM

O=S(=O)(F)Cc1ccccc1 [PMSF]
Residual activity AiWssI^ΔN [5]: 106.3 ± 6.8% | Residual activity PfWssI^ΔN [6]: 103.2 ± 4.2%

OC[C@H]1O[C@@H](O[C@H]2[C@H](O)[C@@H](O)[C@H](O[C@H]3[C@H](O)[C@@H](O)C(O)O[C@@H]3CO)O[C@@H]2CO)[C@H](O)[C@@H](O)[C@@H]1O (some centres unmarked) [cellotriose]
Specific activity of AiWssI^ΔN with acceptor relative to no acceptor control [7]: Significant increases in activity

OC[C@H]1O[C@@H](O[C@H]2[C@H](O)[C@@H](O)[C@H](O[C@H]3[C@H](O)[C@@H](O)[C@H](O[C@H]4[C@H](O)[C@@H](O)C(O)O[C@@H]4CO)O[C@@H]3CO)O[C@@H]2CO)[C@H](O)[C@@H](O)[C@@H]1O (some centres unmarked) [cellotetraose]
Specific activity of AiWssI^ΔN with acceptor relative to no acceptor control [7]: Significant increases in activity

OC[C@H]1O[C@@H](O[C@H]2[C@H](O)[C@@H](O)[C@H](O[C@H]3[C@H](O)[C@@H](O)[C@H](O[C@H]4[C@H](O)[C@@H](O)[C@H](O[C@H]5[C@H](O)[C@@H](O)C(O)O[C@@H]5CO)O[C@@H]4CO)O[C@@H]3CO)O[C@@H]2CO)[C@H](O)[C@@H](O)[C@@H]1O (some centres unmarked) [cellopentaose]
Increase in AiWssI^ΔN activity versus reaction without celloacceptors [7]: 28% | Specific activity of AiWssI^ΔN with acceptor relative to no acceptor control [7]: Significant increases in activity

CN1CCN(c2ccc(NC(=O)c3cc4sc(Nc5ccccc5)nc4s3)cn2)CC1 [Compound 4, N-[6-(4-Methylpiperazin-1-yl)pyridin-3-yl]-2-(phenylamino)thieno[2,3-days][1,3]thiazole-5-carboxamide]
IC50 [1]: 55.3 µM

O=C[C@H](O)[C@@H](O)[C@H](O[C@@H]1O[C@H](CO)[C@@H](O)[C@H](O)[C@H]1O)[C@H](O)CO [cellobiose]
Specific activity of AiWssI^ΔN with acceptor relative to no acceptor control [7]: Significant increases in activity

O=C1NC(=O)c2ccccc2/C1=C\C=Cc1ccco1 [Compound 5, (4E)-4-[3-(Furan-2-yl)prop-2-en-1-ylidene]-1,2,3,4-tetrahydroisoquino-line-1,3-dione]
IC50 [1]: 51.9 µM

OC[C@H]1O[C@@H](O[C@H]2[C@H](O)[C@@H](O)[C@H](O[C@H]3[C@H](O)[C@@H](O)[C@H](O[C@H]4[C@H](O)[C@@H](O)[C@H](O[C@H]5[C@H](O)[C@@H](O)[C@H](O[C@H]6[C@H](O)[C@@H](O)C(O)O[C@@H]6CO)O[C@@H]5CO)O[C@@H]4CO)O[C@@H]3CO)O[C@@H]2CO)[C@H](O)[C@@H](O)[C@@H]1O (some centres unmarked) [cellohexaose]
Increase in AiWssI^ΔN activity versus reaction without celloacceptors [7]: 31% | Specific activity of AiWssI^ΔN with acceptor relative to no acceptor control [7]: Significant increases in activity

Cn1cccc1/C=C(/C#N)c1nnc(-c2ccccc2)n1C [Compound 3, (2Z)-3-(1-Methyl-1H-pyrrol-2-yl)-2-(4-methyl-5-phenyl-4H-1,2,4-triazol-3-yl)-prop-2-enenitrile]
IC50 [4]: 41.4 µM | Ki [4]: 22.1 µM | IC50 [1]: 85.3 µM

CN1/C(=C/C(=O)Cn2cc(S(=O)(=O)N3CCCC3)ccc2=O)C(C)(C)c2ccccc21 [Compound 6, 1-{2-Oxo-3-[(2E)-1,3,3-trimethyl-2,3-dihydro-1H-indol-2-ylidene]propyl}-5-(pyrrolidine-1-sulfonyl)-1,2-dihydropyridin-2-one]
IC50 [1]: 71.9 µM

Cc1nc(N2CCCCC2)sc1/C=N/Nc1ccc(C(=O)O)cc1 [Compound 8, 4-[(2E)-2-{[4-Methyl-2-(piperidin-1-yl)-1,3-thiazol-5-yl]methylidene}hydrazin-1-yl]benzoic acid]
IC50 [1]: 90.3 µM

B1: PfWssI^ΔN (Pseudomonas fluorescens) (protein)
chain: GDTGPRVRPGCPGWLFISDELRINRHAEANAQTKAQAVIDLQKQLGQKGIDLQVVVVPDKSRIAAAQRCGLYRPAVLDNRVRDWTAMLQAAGVSALDLTETLKPLGAEAYLRTDTHWSEIGSNAGAKAVAQRTQQRGIKATPEQTFDITQAPLAVRPGDLVRLAGLDWLPPTLQPPGESVAASTTHETGGATSNADDLFGDAGLPNVALIGTSFSRNSNFVGFLQKALNAPVGNFSKDGGEFSGAAKAYFDSPAFKQTPPKLLIWEIPERDLQTPYDVITIGQ
Km [8]: 2410 ± 770 µM | kcat [8]: 0.0312 ± 0.0034 s⁻¹ | kcat/Km [8]: 13 M⁻¹ s⁻¹ | Km [9]: 340 ± 100 µM | kcat [9]: 0.00162 ± 0.00016 s⁻¹ | kcat/Km [9]: 4.8 M⁻¹ s⁻¹
